According to patent US20130190324A1, “TOPICAL OCULAR DRUG DELIVERY” (The Regents of the University of Colorado, a body corporate, priority 2011, published 2013):
In brackets after ≈: the same amount, converted by molar mass. Entries after “also recorded” stand apart in the source; their conditions may differ. Like-named read-outs stand apart in the source and are kept apart here.

Key:
[1] = single eye drop, cited from earlier work
[2] = Aqueous solubility of GFX and ion pair complex in PBS; assay type: physicochemical; settings: phosphate buffer saline (PBS), thermodynamic from solid, phosphate buffer saline pH 7.4, 37° C., mean ± SD, n = 3
Method: PBS without amino acid was included as control. Samples were incubated at 37° C. for 24 hr in incubator shaker with constant shaking at 200 rpm. At the end of 24 hr of incubations, samples were filtered through 0.45 μm filter and filtrates were analyzed for drug content. All experiments were performed in triplicate.

[3] = physchem
[4] = In vivo ocular tissue distribution after single topical eye drop; parameters: species or system pigmented rabbits
Method: Male New Zealand Satin rabbits in the weight range of 1.8 to 3 kg were obtained from Western Oregon Rabbit Company (Philmoth, Oreg.). Rabbits were divided into two groups (2 animals each), one group received GFX solution (5 mg/ml) in sterile phosphate buffer saline (PBS), and the other group received the GFX-ARG (1:1) ion pair complex (5.0 mg/ml) solution in PBS. Rabbits were restrained in a rabbit restrainer and allowed to stabilize for 5-10 minutes. A topical eye drop (30 μl) of drug solution was applied in both eyes of rabbits using a positive displacement pipette (Gilson 10-100 μl) and sterile tips. To minimize the runoff of instilled dose, the eyelids were gently closed for few seconds after dosing. The time of dose administered was recorded for each animal. After 1 hr of dosing, blood samples were collected from the marginal ear vein and rabbits were euthanized by intravenous injection of sodium pentobarbitone (150 mg/kg) in the marginal ear vein. […]
GFX content in rabbit ocular tissues was measured from the tissues by acetonitrile based extraction. […]
The aqueous humor and vitreous samples were analyzed directly after dilution, without extraction. […]
GFX concentrations in the transport study and ocular tissue samples were analyzed using a validated LC-MS/MS method. […]

[5] = test system: New Zealand white rabbit cornea; test: In vitro transport across rabbit cornea (Ussing chamber); assay type: in vitro ADME; settings: for transport in presence of OCT competitive inhibitor MPP+: MPP+ 500 μM for GFX-ARG ion pair
Method: (§1) In vitro transport of […], and GFX-LYS were carried out across the New Zealand white rabbit cornea and sclera-choroid-[…]). Rabbit eyes were obtained within 24 hr of harvesting from Pel-Freez Biologicals (Rogers, Ark.) and shipped overnight in Hank's balanced salt solution on wet ice. Eyes were used immediately upon arrival. Eyes were washed with assay buffer and cleaned from the muscle and unwanted tissues. […] The small part of the sclera left with cornea helps in mounting the cornea on Ussing chambers. For isolation of the SCRPE, anterior and posterior parts were separated by a circumferential cut at the limbus. […] After separation of the retina, the eye cup was flattened with small cuts around the globe. […] A circulating water bath was used to maintain the temperature at 37° C. during the transport study. The pH of the assay buffer was maintained at 7.4 using 95% air-5% CO2 aeration which also helps in stirring of bathing solutions. Samples were collected (200 μL) from the receiver side every 30 minute for 3 hr and the lost volume was replaced with fresh assay buffer pre-equilibrated at 37° C. GFX levels were analyzed using an LC-MS/MS assay. […] GFX concentrations in the transport study and ocular tissue samples were analyzed using a validated LC-MS/MS method. […] Chromatographic separation of GFX and the internal standard moxifloxacin was performed on Obelisc C18 column (2.1×10 mm, 3 μm). Elution of analytes was performed using linear gradient elution with mobile phase consisting of 5 mM ammonium formate (pH 3.5) and acetonitrile (pH 3.5) with a flow rate of 300 μl/min and total run time of 6 min.

[6] = test system: New Zealand white rabbit sclera-choroid-RPE (SCRPE); test: In vitro transport across rabbit sclera-choroid-RPE (Ussing chamber); assay type: in vitro ADME; settings: rabbit SCRPE; for transport in presence of OCT competitive inhibitor MPP+: MPP+ 500 μM for GFX-ARG ion pair
Method: as §1

[7] = test system: conjunctiva; test: In vitro transport of GFX prodrugs across conjunctiva; assay type: in vitro ADME, Rabbit
[8] = test system: calf sclera-choroid-RPE (SCRPE); test: In vitro transport of substrate cassette across normoxic and hypoxic calf SCRPE
Source text: (§2) Animals used in this study were those that were sacrificed as part of other experiments approved by the Institutional Animal Care Committee of the Colorado State University (Fort Collins) and University of Colorado Anschutz Medical campus. Hypoxic and normoxic calf eyes were obtained from the Department of Physiology, School of Veterinary Medicine, Colorado State University (Fort Collins, Colo.). Briefly, 1 day old male Holstein calves (n=4) were kept in hypobaric hypoxic chambers (PB=445 mm Hg) for 2 weeks. For control experiment, age matched calves (n=4) were kept at ambient altitude (PB=650 mm Hg) and normoxia for two weeks. Hypoxic and normoxic rat eyes were obtained from the Department of Medicine, University of Colorado Anschutz Medical campus (Aurora, Colo.). Sprague Dawley rats (n=4) were maintained in hypobaric hypoxic chambers (PB=380 mm Hg) for 6 weeks and age matched controls were kept at ambient pressure and normoxia.
(§3) In vitro transport studies across hypoxic and control calf cornea and sclera-choroid-RPE (SCRPE) were carried using cassette dosing approach. A cassette of drug transporter substrates, Gly-Sar (PEPT), valacylovir (ATB^0+), MPP^+ (OCT), and phenylacetic acid (MCT) at a concentration of 100 μM each in assay buffer was prepared. Briefly, the calf eyes were harvested immediately after euthanasia and transferred to the laboratory on ice. Upon arrival in the lab, the eyes were washed with assay buffer and cleaned from muscle and unwanted tissues. Anterior and posterior parts were separated by circumferential cut at the limbus. Vitreous was removed and the neural retina was separated from the choroid-RPE by filling the eye cup with assay buffer. The retina afloat in assay buffer was isolated and the eye cup was divided into two pieces (˜1.5×1.5 cm) of sclera-choroid-RPE. Isolated tissues were mounted on modified Ussing chambers (Navicyte, Sparks, Nev.) such that the episcleral side of SCRPE or epithelial side of cornea was facing the donor chamber and retinal side or endothelial side of the cornea was facing the receiver chamber. The chambers were filled with 1.5 ml of assay buffer at 37° C. with (donor side) or without (receiver side) the cocktail of drug transporter substrates. For the study of effect of transporter inhibitors, cocktail mixture (500 μM) of transporter inhibitors was added on both donor and acceptor sides.
(§4) During the transport study, the bathing fluids were maintained at 37° C. using circulating warm water. The pH of the fluids was maintained at pH 7.4 using 95% air-5% CO2 aeration. Samples were collected (200 μL) from receiver side every hour for 6 hours and the removed volume was replaced with fresh assay buffer pre-equilibrated to 37° C. Drug levels were analyzed using a LC-MS/MS assay. Permeation data were corrected for dilution of the receiver concentrations with sample volume replenishment.
(§5) Analyte concentrations in transport study samples were measured using LC-MS/MS method after 5-fold dilution with acetonitrile to reduce the salt concentrations. A cassette analysis method was developed for simultaneous analysis of Gly-Sar, valacylovir, and MPP Phenyl acetic acid was analyzed separately with a negative ionization method and a normal phase separation method. An API-3000 triple quadrupole mass spectrometry (Applied Biosystems, Foster City, Calif., USA) coupled with a PerkinElmer series-200 liquid chromatography (Perkin Elmer, Waltham, Mass., USA) system was used for analysis. Gly-Sar, valacylovir and MPP were separated on Supelco C-5 column (2.1×10 mm, 3 μm) using water containing 0.1% formic acid (A) and acetonitrile:methanol (50:50 v/v) containing 0.1% formic acid (B) as mobile phase. A linear gradient elution at a flow rate of 0.3 ml/min with a total run time of 9 min was employed. Phenyl acetic acid was separated in normal phase separation mode on Obelisc-N silica column (2.1×10 mm, 3 μM) using 5 mM ammonium formate at pH 3.5 (A) and acetonitrile (B) as mobile phase.

[9] = cited from earlier work
[10] = test system: calf cornea; test: In vitro transport of substrate cassette across normoxic and hypoxic calf cornea
Source text: as §2, §3, §4, §5

Structure (SMILES): COc1c(N2CCNC(C)C2)c(F)cc2c(=O)c(C(=O)O)cn(C3CC3)c12 (stereo not shown) [GFX, gatifloxacin]
- reported Tmax ([1]; aqueous humor): 19.8 min
- reported Tmax ([1]; cornea): 4.98 min
- solubility at 24 h [2]: 5.49 mg/mL (≈ 14.6 mM)
- solubility ([3]; water): 0.64 mg/mL (≈ 1.7 mM)
- solubility ([3]; water for injection): 2.5 mg/mL (≈ 6.66 mM)

Structure (SMILES): COc1c(N2CCN(C(=O)C(N)CCCNC(=N)N)C(C)C2)c(F)cc2c(=O)c(C(=O)O)cn(C3CC3)c12 (stereo not shown) [GFX-ARG, 7-(4-(2-amino-5-guanidinopentanoyl)-3-methylpiperazin-1-yl)-1-cyclopropyl-6-fluoro-8-methoxy-4-oxo-1,4-dihydroquinoline-3-carboxylic acid]
- GFX ocular tissue levels compared with GFX alone (in words) ([4]; all ocular tissues, 1 hr after single topical 30 μl eye drop, 5 mg/ml in PBS): higher concentrations of GFX in all ocular tissues; also recorded: enhanced ocular delivery to all ocular tissues
- solubility ([3]; water): 25.5 mg/mL (≈ 48 mM)
- solubility ([3]; water for injection): 25.5 mg/mL (≈ 48 mM)
- cumulative % transport / permeability compared with GFX (in words) [5]: significantly improved permeability
- transport in presence of OCTN inhibitor L-carnitine ([5]; L-carnitine 500 μM): did not show any significant inhibitory effect
- transport in presence of OCT competitive inhibitor MPP+ [5]: inhibited significantly
- cumulative % transport in presence vs absence of ATB0+ inhibitor α-methyl tryptophan ([5]; inhibitor 500 μM): no significant difference
- cumulative % transport / permeability compared with GFX (in words) [6]: significantly improved permeability
- transport in presence of OCTN inhibitor L-carnitine ([6]; L-carnitine 500 μM): did not show any significant inhibitory effect
- transport in presence of OCT competitive inhibitor MPP+ [6]: inhibited significantly
- cumulative % transport in presence vs absence of ATB0+ inhibitor α-methyl tryptophan ([6]; inhibitor 500 μM): no significant difference

Structure (SMILES): COc1c(N2CCNC(C)C2)c(F)cc2c(=O)c(C(=O)NCCCN(C)C)cn(C3CC3)c12 (stereo not shown) [GFX-OCT, 1-cyclopropyl-N-(3-(dimethylamino)propyl)-6-fluoro-8-methoxy-7-(3-methylpiperazin-1-yl)-4-oxo-1,4-dihydroquinoline-3-carboxamide]
- levels in posterior tissues compared with GFX (in words) ([4]; vitreous humor and CRPE, 1 h after topical eye drop): higher concentrations of GFX in all posterior tissues
- cumulative % transport compared with GFX (in words) [7]: significantly (p<0.01) higher than GFX
- transport in presence of OCT competitive inhibitor MPP+ [7]: significantly inhibited
- solubility ([3]; water for injection): 33.3 mg/mL (≈ 72.4 mM)
- cumulative % transport / permeability compared with GFX (in words) [5]: significantly (p<0.01) higher than GFX
- transport in presence of OCT competitive inhibitor MPP+ [5]: significantly inhibited
- cumulative % transport / permeability compared with GFX (in words) [6]: significantly (p<0.01) higher than GFX
- transport in presence of OCT competitive inhibitor MPP+ [6]: significantly inhibited

Structure (SMILES): CC(C)[C@H](N)C(=O)OCCOCn1cnc2c(=O)[nH]c(N)nc21 [valacylovir]
- apparent permeability (Papp) across hypoxic vs normoxic tissue (in words) ([8]; calf SCRPE): significantly higher across normoxic SCRPE than hypoxic SCRPE
- transport across hypoxic vs normoxic tissue (in words) ([8]; calf SCRPE, cassette 100 μM): significantly decreased in hypoxic calf SCRPE; also recorded: significantly higher across normoxic calf SCRPE than hypoxic calf SCRPE
- decrease in cumulative % transport across hypoxic tissue ([8]; hypoxic vs normoxic calf SCRPE): 61%
- increase in oral bioavailability as compared to parent acyclovir [9]: three to five fold increase
- apparent permeability (Papp) across hypoxic vs normoxic tissue (in words) ([10]; calf cornea): significantly higher across normoxic cornea than hypoxic cornea
- transport across hypoxic vs normoxic tissue (in words) ([10]; calf cornea, cassette 100 μM): significantly higher across normoxic calf cornea than hypoxic calf cornea
- decrease in cumulative % transport across hypoxic tissue ([10]; hypoxic vs normoxic calf cornea): 36%
